Read-outs that look alike come from different tables or passages of the source.

Assay [1] relates to TS/A, a murine adenocarcinoma cell line. Description: Cytotoxicity, cell viability (MTU test) on TS/A cells. It counts as cell-based. The conditions noted are these: medium with 5% FCS. The protocol:
(§1) The cytotoxicity of the ruthenium complexes prepared in Example 4 and 7 was tested on two significative tumor cell lines: MCF-7, a human hormone dependent mammary carcinoma cell line and TS/A, a murine adenocarcinoma cell line. At day 0 4000 TS/A cells and 5000 MCF-7 cells were sown in 96-welled dishes In 200 μl of culture medium. The culture medium used was RPMI medium supplemented with 10% FCS for the TS/A line and a mixture 1:1 of DMEM and F12 medium supplemented with 10% FCS for MCF-7. At day 1 the culture medium was removed and substituted with an identical medium containing 5% FCS only (control) or 5% FCS and the test compound (complex of example 4 or example 7) at the following concentrations: 0.1 μM, 1 μM, 3 μM, 10 μM, 30 μM, 100 μM, 300 μM, 600 μM and 1000 μM.
(§2) After 24, 48 and 72 hours cell viability was evaluated with a MTU test.

The test system of assay [2] is MCF-7, a human hormone dependent mammary carcinoma cell line. Description: Cytotoxicity, cell viability (MTU test) on MCF-7 cells. It counts as cell-based. The conditions noted are these: medium with 5% FCS. The protocol: as §1, §2
Where [3] appears, read: 24 hours exposure, read-out: IC50 TSA 24 hours.
[4] abbreviates: 48 hours exposure, read-out: IC50 TSA 48 hours.
The mark [5] stands for this setting: 72 hours exposure, read-out: IC50 TSA 72 hours.
[6] abbreviates: 24 hours exposure, read-out: IC50 MCF-7 24 hours.
[7] abbreviates: 48 hours exposure, read-out: IC50 MCF-7 48 hours.
[8] abbreviates: 72 hours exposure, read-out: IC50 MCF-7 72 hours.

As to “[Im2H][trans-Ru^IICl4(Im)NO] [Complex of Ex. 7]”, the IC50 in assay [1] (setting [3]) was 141 µM; in assay [1] (setting [4]) it was 39 µM; in assay [1] (setting [5]), 33 µM; in assay [2] (setting [6]) it was 532 µM; in assay [2] (setting [7]) it was 143 µM; in assay [2] (setting [8]), 18 µM.

Turning to “[ImH][trans-Ru^IICl4(Me2SO—O)NO] [Complex of Ex. 4]”, the IC50 in assay [1] (setting [3]) came to 155 µM; in assay [1] (setting [4]) it was 20 µM; in assay [1] (setting [5]) it was 17 µM; in assay [2] (setting [6]), 764 µM; in assay [2] (setting [7]), 118 µM; in assay [2] (setting [8]) it was 26 µM.

One may read the IC50 as the concentration at which inhibition is half-maximal.

Values taken from US7393871B2, “Anionic and neutral complexes of ruthenium (II) with nitrogen oxide” (Siega S.R.L., priority 2003, dated 2008).
